The values below come from US20220362153A1, “COMPOSITIONS AND METHODS FOR PULMONARY SURFACTANT-BIOMIMETIC NANOPARTICLES” (priority 2019, published 2022).

This experiment has as its system rgVN04 H5N1 virus. More on the design: species or system mice. Conditions: mouse, in vivo.

For cholera toxin [CT], the “early protection by VN04 H5N1 vaccine combined with adjuvant” value was “did not provide any early protection”.
